Experimental data taken from US20250215029A1 (Recludix Pharma, Inc., priority 2022, published 2025).
Like-named read-outs stand apart in the source and are kept apart here.

How the values were obtained:
[1] = target: T1, Recombinant STAT3 protein (STAT3 (G127-I722)) (Homo sapiens, UniProt P40763); assay: STAT3 Fluorescence Polarization (FP) Assay; assay type: binding; conditions: probe 5-FAM-GpYLPQTV-NH2 2 nM, 45-minute incubation
T1 construct: Recombinant STAT3 protein (STAT3 (G127-I722))
Outline: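 Displacement of a fluorescent phosphotyrosine peptide (5-FAM-GpYLPQTV-NH2, 2 nM) from 25 nM recombinant STAT3 G127-I722 was monitored by FP after 45 min at room temperature.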

[2] = target: T2, Recombinant STAT6 protein (STAT6 (W123-T658)) (Homo sapiens, UniProt P42226); assay: STAT6 Fluorescence Polarization (FP) Assay; assay type: binding; conditions: probe 5-FAM-Ap[…]-NH2 2 nM, 45-minute incubation
T2 construct: Recombinant STAT6 protein (STAT6 (W123-T658))
T2 sequence (P42226 123-658): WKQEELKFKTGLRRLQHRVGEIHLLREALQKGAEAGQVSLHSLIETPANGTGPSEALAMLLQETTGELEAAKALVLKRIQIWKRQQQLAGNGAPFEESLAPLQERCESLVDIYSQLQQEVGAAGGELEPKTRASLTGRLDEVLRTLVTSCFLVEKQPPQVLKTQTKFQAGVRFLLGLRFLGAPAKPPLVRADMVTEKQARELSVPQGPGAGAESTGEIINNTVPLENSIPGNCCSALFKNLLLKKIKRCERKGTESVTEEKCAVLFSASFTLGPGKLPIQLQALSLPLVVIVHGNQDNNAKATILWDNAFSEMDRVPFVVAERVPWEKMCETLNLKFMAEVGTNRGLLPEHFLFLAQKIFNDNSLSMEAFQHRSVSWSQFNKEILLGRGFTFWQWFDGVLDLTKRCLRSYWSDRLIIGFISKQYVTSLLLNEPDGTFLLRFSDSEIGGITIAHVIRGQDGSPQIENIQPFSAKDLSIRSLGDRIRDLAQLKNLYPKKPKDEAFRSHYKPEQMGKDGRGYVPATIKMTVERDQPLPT
Outline: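 Competitive FP binding: recombinant STAT6 (W123-T658) at 250 nM, labeled phosphotyrosine peptide at 2 nM, compounds at 1% DMSO, 45 min at RT before reading. IC50 values were obtained from nonlinear regression of mP versus log concentration.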

[3] = STAT3 (G127-I722) 25 nM, read-out: STAT3 (FP assay IC50 class)
[4] = STAT6 (W123-T658) 250 nM, read-out: STAT6 (FP assay IC50 class)
[5] = STAT3 25 nM, read-out: STAT3 (FP assay IC50)
[6] = STAT6 250 nM, read-out: STAT6 (FP assay IC50)

T1 sequence (P40763 127-722): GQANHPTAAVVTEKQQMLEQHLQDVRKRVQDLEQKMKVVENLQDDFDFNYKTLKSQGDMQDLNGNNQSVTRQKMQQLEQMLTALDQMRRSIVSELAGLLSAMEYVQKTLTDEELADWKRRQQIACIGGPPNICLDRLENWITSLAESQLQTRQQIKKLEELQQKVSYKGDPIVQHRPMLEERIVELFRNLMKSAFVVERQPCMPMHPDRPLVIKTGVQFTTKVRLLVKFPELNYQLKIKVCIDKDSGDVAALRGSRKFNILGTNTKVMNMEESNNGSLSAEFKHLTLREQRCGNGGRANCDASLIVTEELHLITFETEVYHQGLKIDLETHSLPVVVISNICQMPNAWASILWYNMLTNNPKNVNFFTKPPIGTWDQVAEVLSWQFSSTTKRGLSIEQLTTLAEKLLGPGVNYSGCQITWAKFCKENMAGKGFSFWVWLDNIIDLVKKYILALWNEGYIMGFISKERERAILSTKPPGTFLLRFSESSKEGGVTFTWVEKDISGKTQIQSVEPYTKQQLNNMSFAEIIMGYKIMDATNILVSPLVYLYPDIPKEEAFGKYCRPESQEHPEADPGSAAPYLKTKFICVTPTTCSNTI

Row | SMILES | IC50 [1, 3] [nM] | IC50 [2, 4] [nM] | IC50 [1, 5] [nM] | IC50 [2, 6] [nM]
1 | O=C(N[C@H]1CCCC[C@H]2CC[C@@H](C(=O)N3C(=O)N(c4cccnc4)C(=O)C34CC4)N2C1=O)c1cc2cc(C(F)P(=O)(O)O)ccc2s1 (stereo partly drawn) [Compound 900, ((2-(((3S,6S,10aS)-3-(5,7-dioxo-6-(pyridin-3-yl)-4,6-diazaspiro[2.4]heptane-4-carbonyl)-5-oxodecahydropyrrolo [1,2-a]azocin-6-yl)carbamoyl)benzo [b]thiophen-5-yl)fluoromethyl) phosphonic acid] | 1000 to 10000 | ≤ 300 |  | 
2 | CC(C)(O)c1cn(C2CN(C(=O)[C@@H]3CC[C@@H]4CCCC[C@H](NC(=O)c5cc6cc(C(F)(F)P(=O)(O)O)ccc6s5)C(=O)N43)C2)nn1 [Compound 56, (difluoro(2-(((3S,6S,10aS)-3-(3-(4-(2-hydroxypropan-2-yl)-1H-1,2,3-triazol-1-yl)azetidine-1-carbonyl)-5-oxodecahydropyrrolo [1,2-a]azocin-6-yl)carbamoyl)benzo[b]thiophen-5-yl)methyl) phosphonic acid] |  |  | 100 to 1000 | 3000 to 30000
3 | C[C@@]1(O)CC[C@H]2CC[C@@H](C(=O)N3C[C@H](c4ccccc4)[C@@H](C#N)C3)N2C(=O)[C@@H](NC(=O)c2cc3cc(C(F)(F)P(=O)(O)O)ccc3s2)C1 (single isomer, unassigned) [Compound 14, ((2-(((3S,6S,8R,10aR)-3-((3R,4S or 3S,4R)-3-cyano-4-phenylpyrrolidine-1-carbonyl)-8-hydroxy-8-methyl-5-oxodecahydropyrrolo [1,2-a]azocin-6-yl)carbamoyl)benzo[b]thiophen-5-yl)difluoromethyl) phosphonic acid] |  |  | 100 to 1000 | ≤ 300
4 | N#CC1(c2ccccn2)CN(C(=O)[C@@H]2CC[C@@H]3CCC[C@H](NC(=O)c4cc5cc(C(F)(F)P(=O)(O)O)ccc5s4)C(=O)N32)C1 [Compound 776, ((2-(((3S,6S,9aS)-3-(3-cyano-3-(pyridin-2-yl)azetidine-1-carbonyl)-5-oxooctahydro-1H-pyrrolo[1,2-a]azepin-6-yl)carbamoyl)benzo [b]thiophen-5-yl)difluoromethyl) phosphonic acid] | < 100 | 300 to 3000 |  | 
5 | O=C(N[C@H]1CCC[C@H]2CC[C@@H](C(=O)N3CC(c4cnccc4F)C3)N2C1=O)c1cc2cc(C(F)P(=O)(O)O)ccc2s1 (stereo partly drawn) [Compound 664, (fluoro(2-(((3S,6S,9aS)-3-(3-(4-fluoropyridin-3-yl)azetidine-1-carbonyl)-5-oxooctahydro-1H-pyrrolo[1,2-a]azepin-6-yl)carbamoyl)benzo [b]thiophen-5-yl)methyl) phosphonic acid] | < 100 | 300 to 3000 |  | 
6 | O=C(N[C@H]1CCC2(CC2)C[C@H]2CC[C@@H](C(=O)N3CC(c4cccnc4)C3)N2C1=O)c1cc2cc(C(F)(F)P(=O)(O)O)ccc2s1 [Compound 25, (difluoro(2-(((3′S,6′S,10a′R)-5′-oxo-3′-(3-(pyridin-3-yl)azetidine-1-carbonyl)octahydro-1′H-spiro [cyclopropane-1,9′-pyrrolo[1,2-a]azocin]-6′-yl)carbamoyl)benzo[b]thiophen-5-yl)methyl) phosphonic acid] |  |  | < 100 | 300 to 3000
7 | CN(C)c1nccc(C2CN(C(=O)[C@@H]3CC[C@@H]4CCC[C@H](NC(=O)c5cc6cc([C@@H](F)P(=O)(O)O)ccc6s5)C(=O)N43)C2)n1 (single isomer, unassigned) [Compound 710] | 100 to 1000 | 3000 to 30000 |  | 
8 | CC(F)(c1ccc2sc(C(=O)N[C@H]3CCC[C@H]4CC[C@@H](C(=O)N5CC(c6cccnc6)C5)N4C3=O)cc2c1)P(=O)(O)O (stereo partly drawn) [Compound 221, (1-fluoro-1-(2-(((3S,6S,9aS)-5-oxo-3-(3-(pyridin-3-yl)azetidine-1-carbonyl)octahydro-1H-pyrrolo[1,2-a]azepin-6-yl)carbamoyl)benzo[b]thiophen-5-yl)ethyl)phosphonic acid] | < 100 | 3000 to 30000 |  | 
9 | O=C(N[C@H]1CCCC[C@H]2CC[C@@H](C(=O)N3CC(c4c[nH]cn4)C3)N2C1=O)c1cc2cc(C(F)(F)P(=O)(O)O)ccc2s1 [Compound 67, ((2-(((3S,6S,10aS)-3-(3-(1H-imidazol-4-yl)azetidine-1-carbonyl)-5-oxodecahydro-pyrrolo[1,2-a]azocin-6-yl)carbamoyl)benzo[b]thiophen-5-yl)difluoromethyl) phosphonic acid] |  |  | < 100 | 300 to 3000
10 | CN1CCN(c2ccncc2C2CN(C(=O)[C@@H]3CC[C@@H]4CCC[C@H](NC(=O)c5cc6cc([C@@H](F)P(=O)(O)O)ccc6s5)C(=O)N43)C2)C1=O [Compound 851, ((S)-fluoro(2-(((3S,6S,9aS)-3-(3-(4-(3-methyl-2-oxoimidazolidin-1-yl)pyridin-3-yl)azetidine-1-carbonyl)-5-oxooctahydro-1H-pyrrolo[1,2-a]azepin-6-yl)carbamoyl)benzo [b]thiophen-5-yl)methyl) phosphonic acid] | 100 to 1000 | 3000 to 30000 |  | 
11 | O=C(N[C@H]1CCCC[C@H]2CC[C@@H](C(=O)N3CCCC34CC4)N2C1=O)c1cc2cc(C(F)(F)P(=O)(O)O)ccc2s1 [Compound 786, (difluoro(2-(((3S,6S,10aS)-5-oxo-3-(4-azaspiro[2.4]heptane-4-carbonyl)decahydropyrrolo[1,2-a]azocin-6-yl)carbamoyl)benzo [b]thiophen-5-yl)methyl) phosphonic acid] | 1000 to 10000 | 300 to 3000 |  | 
12 | Cc1cc(=O)[nH]cc1C1CN(C(=O)[C@@H]2CC[C@@H]3CCC[C@H](NC(=O)c4cc5cc(CP(=O)(O)O)ccc5s4)C(=O)N32)C1 [Compound 646, ((2-(((3S,6S,9aS)-3-(3-(4-methyl-6-oxo-1,6-dihydropyridin-3-yl)azetidine-1-carbonyl)-5-oxooctahydro-1H-pyrrolo[1,2-a]azepin-6-yl)carbamoyl)benzo [b]thiophen-5-yl)methyl) phosphonic acid] | 1000 to 10000 | 3000 to 30000 |  | 
13 | O=C(N[C@H]1CCC[C@H]2CC[C@@H](C(=O)N3CC(c4cnccc4O)C3)N2C1=O)c1cc2cc(C(F)P(=O)(O)O)ccc2s1 (stereo partly drawn) [Compound 540, (fluoro(2-(((3S,6S,9aS)-3-(3-(4-hydroxypyridin-3-yl)azetidine-1-carbonyl)-5-oxooctahydro-1H-pyrrolo[1,2-a]azepin-6-yl)carbamoyl)benzo[b]thiophen-5-yl)methyl)phosphonic acid] | < 100 | 300 to 3000 |  | 
14 | Cn1ncc(C2CN(C(=O)[C@@H]3CC[C@@H]4CCC[C@H](NC(=O)c5cc6cc(C(F)P(=O)(O)O)ccc6s5)C(=O)N43)C2)c1F (stereo partly drawn) [Compound 635, (fluoro(2-(((3S,6S,9aS)-3-(3-(5-fluoro-1-methyl-1H-pyrazol-4-yl)azetidine-1-carbonyl)-5-oxooctahydro-1H-pyrrolo[1,2-a]azepin-6-yl)carbamoyl)benzo [b]thiophen-5-yl)methyl) phosphonic acid] | 100 to 1000 | 3000 to 30000 |  | 
15 | Cn1ccc(=O)c(C2CN(C(=O)[C@@H]3CC[C@@H]4CCC[C@H](NC(=O)c5cc6cc(CP(=O)(O)O)ccc6s5)C(=O)N43)C2)c1 [Compound 584, ((2-(((3S,6S,9aS)-3-(3-(1-methyl-4-oxo-1,4-dihydropyridin-3-yl)azetidine-1-carbonyl)-5-oxooctahydro-1H-pyrrolo[1,2-a]azepin-6-yl)carbamoyl)benzo[b]thiophen-5-yl)methyl)phosphonic acid] | 1000 to 10000 | 3000 to 30000 |  | 
16 | N#C[C@@H]1CN(C(=O)[C@@H]2CC[C@@H]3CCCC[C@H](NC(=O)c4cc5cc(C(F)(F)P(=O)(O)O)ccc5s4)C(=O)N32)C[C@H]1c1ccccc1 (relative stereo) [Compound 95, ((2-(((3S,6S,10aS)-3-(rel-(trans)-3-cyano-4-phenylpyrrolidine-1-carbonyl)-5-oxodecahydropyrrolo [1,2-a]azocin-6-yl)carbamoyl)benzo[b]thiophen-5-yl)difluoromethyl) phosphonic acid] |  |  | 100 to 1000 | ≤ 300
17 | O=C(N[C@H]1CCC[C@H]2CC[C@@H](C(=O)N3CC(c4cccnc4)C3)N2C1=O)c1cc2cc(CP(=O)(O)O)ccc2[nH]1 [Compound 720, ((2-(((3S,6S,9aS)-5-oxo-3-(3-(pyridin-3-yl)azetidine-1-carbonyl)octahydro-1H-pyrrolo[1,2-a]azepin-6-yl)carbamoyl)-1H-indol-5-yl)methyl) phosphonic acid] | 1000 to 10000 | 3000 to 30000 |  | 
